Test results published in ChEMBL document CHEMBL3301361, “Experimental in vitro DMPK and physicochemical data on a set of publicly disclosed compounds”.
In brackets after ≈: the same amount, converted by molar mass.

Experiments:
physchem [1] = details: octan-1-ol/water, pH 7.4, LogD7.4
in vitro [2] = details: human, plasma
in vitro [3] = details: Beagle, dog, plasma
in vitro [4] = details: human
in vitro [5] = details: SD, HW or BN, rat, plasma
physchem [6] = details: pH 7.4 buffer

| SMILES | logD (physchem [1]) | fraction unbound at 5 h (in vitro [2]; PPB) | fraction unbound at 5 h (in vitro [3]) | microsomal CLint (in vitro [4]; microsomes) [µL/min/mg] | fraction unbound at 5 h (in vitro [5]) | solubility thermodynamic (physchem [6]) [µM] | microsomal CLint (in vitro [4]; liver microsomes) [µL/min/mg] | fraction unbound at 5 h (in vitro [2]) |
| --- | --- | --- | --- | --- | --- | --- | --- | --- |
| CCCCNc1nc(SCCC)nc2c1nnn2[C@@H]1C[C@H](CO)[C@@H](O)[C@H]1O | 3.07 | 0.024 | 0.0467 | 6 | – | – | – | – |
| Cc1cc(Nc2nc(N[C@@H](C)c3ccc(F)cn3)c(C#N)nc2C)n[nH]1 | – | 0.173 | 0.262 | – | 0.19 | – | – | – |
| CC(C)(C)NC(=O)NCCN1CCC(O)(CNC(=O)c2cc(Cl)cc(Cl)c2)CC1 | – | 0.232 | 0.36 | – | 0.232 | – | – | – |
| OCCO[C@H]1C[C@@H](n2nnc3c(N[C@@H]4C[C@H]4c4ccc(F)c(F)c4)nc(SCCC(F)(F)F)nc32)[C@H](O)[C@@H]1O | 4.17 | 0.0015 | 0.0046 | – | – | – | – | – |
| CCCSc1nc(N[C@@H]2C[C@H]2c2ccccc2)c2nnn([C@@H]3C[C@H](O)[C@@H](O)[C@H]3O)c2n1 | 3.97 | – | 0.0066 | – | – | 1.1 (≈ 0.487 µg/mL) | < 3 | – |
| Cc1cc(Nc2nc(N[C@@H](C)c3ncc(F)cn3)c(C#N)nc2C)n[nH]1 | 1.92 | 0.304 | 0.454 | – | 0.349 | – | – | – |
| C[S+]([O-])Cc1ccc(C(=O)Nc2ccc(OCCOCCO)nc2C(=O)NCC2CCC2)c2ccccc12 (stereo not given) | – | 0.0499 | 0.0581 | – | 0.0343 | – | – | – |
| O=C(Cn1c(Cl)cnc(NCC(F)(F)c2ccccn2)c1=O)NCc1ncccc1F [DPOC-4088] | – | 0.28 | 0.392 | – | 0.208 | – | – | – |
| CC(C)(C)NC(=O)NCCN1CCOC(CNC(=O)c2cc(Cl)cc(Cl)c2)C1 (stereo not given) | – | 0.0606 | 0.0818 | – | 0.0676 | – | – | – |
| Cc1c(Sc2ccc(Cl)cc2)c2c(S(C)(=O)=O)cccc2n1CC(=O)O | 0.58 | 0.035 | 0.0256 | < 3 | – | – | – | – |
| CC(C)(C)NC(=O)NCCN1CCCC(NC(=O)c2cc(Cl)cc(Cl)c2)C1 (stereo not given) | – | 0.028 | 0.0633 | – | 0.0391 | – | – | – |
| CN(C)CCCN1c2ccccc2CCc2ccccc21 [IMIPRAMINE] | – | – | 0.0437 | – | 0.173 | – | – | 0.121 |
| CCCn1c(=O)[nH]c(=O)c2[nH]cnc21 [ENPROFYLLINE] | – | 0.329 | 0.392 | – | 0.212 | – | – | – |
| COC(=O)C1=C(C)NC(C)=C(C(=O)OC)C1c1ccccc1[N+](=O)[O-] [NIFEDIPINE] | – | – | 0.0736 | – | 0.0023 | – | – | 0.0383 |
| OC[C@H]1C[C@@H](n2nnc3c(N[C@@H]4C[C@H]4c4ccc(F)c(F)c4)nc(SCCC(F)(F)F)nc32)[C@H](O)[C@@H]1O | 3.99 | 0.0015 | 0.002 | – | – | 7.2 (≈ 3.93 µg/mL) | – | – |
| C[C@H](CO)Nc1nc(SCc2cccc(F)c2F)nc2nc(N)sc12 | 3.29 | 0.0196 | 0.0366 | – | – | 8.1 (≈ 3.11 µg/mL) | – | – |
| Cc1oc(CN2CCNCC2)cc1C(=O)NCC12CC3CC(CC(C3)C1)C2 | 1.03 | 0.148 | 0.437 | – | – | – | – | – |
| O=C(CN1CCN(CCC2CCOCC2)CC1)NC12CC3CC(CC(C3)C1)C2 | – | 0.529 | 0.431 | – | 0.392 | – | – | – |
| O=C(NC12CC3CC(CC(C3)C1)C2)OCCNC1CCCCC1 | – | 0.11 | 0.16 | – | 0.129 | – | – | – |
| CCCNC(=O)NS(=O)(=O)c1ccc(Cl)cc1 [CHLORPROPAMIDE] | -0.33 | 0.04 | 0.142 | – | – | – | – | – |
| CC(C)(C)NC(=O)NCCN1CCC(CNC(=O)c2cc(Cl)cc(Cl)c2)C1 (stereo not given) | – | 0.0968 | 0.0909 | – | 0.139 | – | – | – |
| O=C(NCC12CC3CC(CC(C3)C1)C2)c1cc(CN2C[C@@H]3C[C@H]2CN3)ccc1Cl | 1.45 | 0.0968 | 0.114 | – | – | – | 13 | – |
| C[C@@H]1C[C@H]2[C@@H]3CCC4=CC(=O)C=C[C@]4(C)[C@@]3(Cl)[C@@H](O)C[C@]2(C)[C@@]1(OC(=O)c1ccco1)C(=O)CCl [MOMETASONE FUROATE] | – | 0.0023 | 0.003 | – | 0.001 | – | – | – |
| C[C@H](CO)Nc1nc(SCc2cccc(F)c2F)nc2[nH]c(=O)cnc12 | 3.1 | 0.0114 | 0.028 | – | – | 3.5 (≈ 1.33 µg/mL) | – | – |
| CC(C)(C)S(=O)(=O)CCCN1CCN(CC(=O)NC23CC4CC(CC(C4)C2)C3)CC1 | – | 0.349 | 0.289 | – | 0.309 | – | – | – |

Now from value to molecule, other results behind:

| logD (physchem [1]) | fraction unbound at 5 h (in vitro [2]; PPB) | fraction unbound at 5 h (in vitro [3]) | microsomal CLint (in vitro [4]; microsomes) [µL/min/mg] | fraction unbound at 5 h (in vitro [5]) | solubility thermodynamic (physchem [6]) [µM] | microsomal CLint (in vitro [4]; liver microsomes) [µL/min/mg] | SMILES | fraction unbound at 5 h (in vitro [2]) |
| --- | --- | --- | --- | --- | --- | --- | --- | --- |
| – | – | 0.0366 | – | 0.224 | – | – | NC(=O)c1cnc(N[C@H]2CCCNC2)c2cc(-c3ccccc3)sc12 | – |
| 0.63 | 0.483 | 0.569 | – | 0.738 | – | – | CO[C@H]1CN(CCn2c(=O)ccc3ccc(C#N)cc32)CC[C@H]1NCc1cc2c(cn1)OCCO2 | – |
| 2.32 | 0.0179 | 0.089 | – | 0.0106 | – | – | CC[C@@H](Nc1c(Nc2cccc(C(=O)N(C)C)c2O)c(=O)c1=O)c1ccc(C)o1 [NAVARIXIN ANHYDROUS] | – |
| – | – | 0.0661 | – | 0.224 | 288 (≈ 149 µg/mL) | – | N#Cc1ccccc1C[C@@H](C(=O)O)N1CCC(CN2CCC(Oc3ccc(Cl)c(Cl)c3)CC2)CC1 | – |
| – | 0.0532 | 0.0606 | – | 0.0467 | – | – | Cc1cc(C(C)Nc2ccccc2)c2nc(N3CCOCC3)cc(=O)n2c1 (stereo not given) | – |
| – | 0.16 | 0.299 | – | 0.0948 | – | – | C[C@H]1CN(c2cc(N(CCO)Cc3cccc4ccccc34)[nH]c(=O)n2)CCO1 | – |
| – | 0.0136 | 0.04 | – | 0.028 | – | – | CCNC(=O)Nc1nc2cc(-c3cccnc3)cc(-c3ncccc3F)c2[nH]1 | – |
| – | 0.0039 | 0.004 | – | 0.5 | – | – | Cc1ccc(NC(=O)c2cccc(C(C)(C)C#N)c2)cc1Nc1ccc2ncn(C)c(=O)c2c1 | – |
| – | – | 0.365 | – | 0.107 | – | – | CCOc1cc2ncc(C(N)=O)c(Nc3cc(C)ccc3F)c2cc1N1CCN(C)CC1 | – |
| 2.97 | 0.051 | 0.249 | – | 0.119 | – | – | CC(C)Oc1cc(Nc2nc3c(cc2F)ncn3[C@@H](CO)c2ccc(F)cn2)n[nH]1 | – |
| 3.33 | 0.035 | 0.035 | – | – | – | 13.5 | Cc1c(Cl)ccc(OC2CCN(C3CCN(C(=O)c4cccc(S(C)(=O)=O)c4)CC3)CC2)c1Cl | – |
| – | 0.105 | 0.613 | – | 0.339 | – | – | COc1cc2c(cc1OC)C(=O)C(CC1CCN(Cc3ccccc3)CC1)C2 (stereo not given) [DONEPEZIL] | – |
| 0.46 | – | 0.608 | – | 0.734 | – | – | N#Cc1ccc2ccc(=O)n(CCN3CC[C@H](NCc4cc5c(cn4)OCCO5)[C@H](O)C3)c2c1 | – |
| 2.35 | 0.0854 | 0.443 | – | – | – | 107 | CC(C)Cn1c(=O)n(C)c(=O)c2c(C(=O)N3CC[C@@H](O)C3)c(Cc3c[nH]c4ccccc34)sc21 | – |
| – | 0.007 | 0.0084 | – | 0.0099 | – | – | CC(C)(C)OC(=O)NC[C@H]1CC[C@H](CNC(=O)c2cc(N3CCC(CCO)CC3)nc3ccccc23)CC1 | – |
| – | 0.0366 | 0.0705 | – | – | 158 (≈ 75.2 µg/mL) | – | COc1ncc(-c2cccc3c2C[C@H](NC(=O)c2ccc(COCC(F)(F)F)nc2)CO3)cn1 | – |
| – | 0.11 | 0.11 | – | 0.17 | – | – | CC(C)(C)NC(=O)NCCN1CCC(CNC(=O)c2cc(Cl)cc(Cl)c2)CC1 | – |
| 3.75 | 0.0437 | 0.0499 | – | – | – | – | OC[C@H](Nc1ncc(Cl)c(Nc2cc(C3CC3)n[nH]2)n1)c1ccc(F)cc1 | – |
| – | 0.0014 | 0.0031 | – | 0.0015 | – | – | CCOc1noc2cc(OCCC3CCN(c4ccc(C)nn4)CC3)ccc12 | – |
| – | 0.0139 | 0.0209 | – | 0.0146 | – | – | COc1ccc2c(C)cc(N[C@H]3CC[C@H](NCc4cn(C)c5ccc(C#N)cc45)C3)nc2c1 | – |
| 2.88 | 0.004 | 0.0133 | – | – | – | < 3 | Cc1ccc2c(c1)c(-c1cc(C)nc3ccccc13)c(C)n2CC(=O)O | – |
| – | 0.016 | 0.062 | – | 0.0633 | – | – | CCOc1cc2nnc(C(N)=O)c(Nc3ccc(C)cc3F)c2cc1N1CCN(C)CC1 | – |
| 1.68 | 0.0099 | 0.0183 | – | – | – | < 3 | COc1ccc2c(c1)c(CC(=O)O)c(C)n2-c1ccnc2cc(Cl)ccc12 | – |
| – | – | 0.807 | – | 0.772 | – | – | CCNC(=O)[C@H]1C[C@@](F)(c2ccc(CN3CCCC3)c(F)c2)C1 [PF-03654746] | – |
| – | 0.0705 | 0.204 | – | 0.134 | – | – | CCOc1cc2ncc(C(N)=O)c(Nc3cccc(Cl)c3F)c2cc1N1CCN(C)CC1 | – |
| – | 0.0274 | 0.0437 | – | 0.0328 | – | – | O=C(O)CCn1c2c(c3ccccc31)C[C@H](NS(=O)(=O)c1ccc(F)cc1)CC2 [RAMATROBAN] | – |
| 0.45 | – | 0.602 | – | 0.471 | – | – | N#Cc1ccc2ccc(=O)n(CCN3CC[C@@H](NCc4cc5c(cn4)OCCO5)[C@@H](O)C3)c2c1 | – |
| – | – | 0.0088 | – | 0.0854 | – | – | Cc1cc(F)ccc1Oc1cccc2c(=O)cc(N3CCOCC3)[nH]c12 | – |
